For one data set, the system named is CYP3A4. More on the design: method as in PMID 34959473. The following applies: cited from earlier work.
Another data set concerns CYP1A1. Also on record: method as in PMID 34959473. The following applies: cited from earlier work.
Another data set addresses T1, P-gp (Homo sapiens, UniProt P08183).
T1 construct: expressed in transfected cells; host or cells: MDCKII (Madin-Darby canine kidney) cells, provided by Dr. Philip E. Empey
In words: Bi-directional transport across MDCKII P-gp and WT cell monolayers. The format is in vitro ADME.

The target of data set [1] is MRP1 (Homo sapiens, UniProt P33527). In words: ATPase assay (ADP-Glo Max) in MRP1 vesicles. The format is biochemical. More on the design: purchased Thermo Fisher Scientific. The settings on record: DPV 20 μM; N-ethylmaleimide-S-glutathione 10 mM; 60 min, 37 °C. The protocol: ATPase activity of MRP1 or MRP4 in transporter overexpressing membrane vesicles (10 μg of protein per assay) was measured by the ADP-Glo Max assay according to manufacturer’s protocol. The assay quantified the amount of ADP produced by the membrane vesicles over 60 min at 37 °C in the ATPase assay buffer (50 mM Tris-MOPS, 50 mM potassium chloride, 5 mM sodium azide, 2 mM dithiothreitol, 2 mM glutathione, 0.1 mM EGTA-Tris, and 10 mM magnesium chloride at pH 7.0). DPV was tested at 20 μM and compared to the baseline ATPase activity. A known MRP1 substrate, N-ethylmaleimide-S-glutathione (prepared by mixing N-ethylmaleimide and glutathione at a 1:1 molar ratio), at 10 mM and a known MRP4 substrate, prostaglandin E2, at 20 μM were used as positive controls. The reaction was initiated with 5 mM ATP and quenched with the ADP-Glo detection buffer. The amount of ADP produced was quantified by recording luminescence on a SpectraMax M3 plate reader (Molecular Devices, San Jose, CA, USA).

The next data set concerns human cervical tissue. In words: Histology (H&E) of human cervical tissue after permeability assay. The settings on record: 6-h exposure, clinically relevant concentrations. Here is the method: Gross morphology of tissue samples was evaluated using hematoxylin and eosin (H&E) staining. After fixation in formalin, tissue samples were dehydrated in alcohol, cleared in xylene, and embedded in paraffin wax. Five-micron sections of embedded tissue were used to perform H&E staining following manufacturer’s procedures (hematoxylin for 5 min, bluing reagent for 15 s, and eosin for 2 min) and mounted onto microscope slides using Cytoseal 60. Images were acquired using the AxioCam software, version 4.9.1 (Carl Zeiss, San Diego, CA, USA) paired with the microscope, Axioskop 40 (Carl Zeiss, San Diego, CA, USA).

For data set [2], the system named is MRP1. More on the design: method as in PMID 26102284. The settings on record: DPV at 10 μM; cited from earlier work.

T1 sequence (P08183 whole entry): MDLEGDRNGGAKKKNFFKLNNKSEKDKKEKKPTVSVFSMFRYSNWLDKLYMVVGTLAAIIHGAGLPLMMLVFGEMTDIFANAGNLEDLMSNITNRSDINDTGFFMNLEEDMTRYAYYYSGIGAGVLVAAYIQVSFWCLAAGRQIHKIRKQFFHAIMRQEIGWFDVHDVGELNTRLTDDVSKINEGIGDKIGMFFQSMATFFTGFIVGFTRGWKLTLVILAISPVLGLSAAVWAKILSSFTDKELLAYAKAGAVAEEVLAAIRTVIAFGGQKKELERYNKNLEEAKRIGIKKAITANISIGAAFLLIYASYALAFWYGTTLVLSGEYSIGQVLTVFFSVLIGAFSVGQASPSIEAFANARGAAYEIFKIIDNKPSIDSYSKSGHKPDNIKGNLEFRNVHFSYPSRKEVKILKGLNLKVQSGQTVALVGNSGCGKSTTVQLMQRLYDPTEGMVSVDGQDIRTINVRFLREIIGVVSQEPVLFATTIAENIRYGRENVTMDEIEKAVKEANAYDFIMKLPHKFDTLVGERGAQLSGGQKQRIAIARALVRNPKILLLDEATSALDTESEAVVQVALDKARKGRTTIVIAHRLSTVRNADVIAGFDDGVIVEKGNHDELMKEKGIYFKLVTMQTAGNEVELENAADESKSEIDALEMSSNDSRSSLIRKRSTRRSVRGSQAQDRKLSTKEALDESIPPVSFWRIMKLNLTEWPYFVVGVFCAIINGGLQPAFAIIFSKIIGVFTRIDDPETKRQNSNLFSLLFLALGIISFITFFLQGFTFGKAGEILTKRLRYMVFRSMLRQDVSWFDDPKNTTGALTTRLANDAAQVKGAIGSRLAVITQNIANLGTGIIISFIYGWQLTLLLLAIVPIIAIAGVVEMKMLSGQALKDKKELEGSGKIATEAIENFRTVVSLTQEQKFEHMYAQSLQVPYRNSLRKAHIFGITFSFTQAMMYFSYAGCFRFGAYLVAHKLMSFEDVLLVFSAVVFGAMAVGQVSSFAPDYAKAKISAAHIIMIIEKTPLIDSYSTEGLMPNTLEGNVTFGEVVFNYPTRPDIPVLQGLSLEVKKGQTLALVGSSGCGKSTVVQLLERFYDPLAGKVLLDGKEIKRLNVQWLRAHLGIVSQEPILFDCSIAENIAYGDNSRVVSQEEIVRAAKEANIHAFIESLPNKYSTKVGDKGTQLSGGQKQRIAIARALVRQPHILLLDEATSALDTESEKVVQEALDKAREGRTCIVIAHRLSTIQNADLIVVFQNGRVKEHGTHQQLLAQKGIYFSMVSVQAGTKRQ
Chain of MRP1 (Homo sapiens, UniProt P33527) (P33527 whole entry): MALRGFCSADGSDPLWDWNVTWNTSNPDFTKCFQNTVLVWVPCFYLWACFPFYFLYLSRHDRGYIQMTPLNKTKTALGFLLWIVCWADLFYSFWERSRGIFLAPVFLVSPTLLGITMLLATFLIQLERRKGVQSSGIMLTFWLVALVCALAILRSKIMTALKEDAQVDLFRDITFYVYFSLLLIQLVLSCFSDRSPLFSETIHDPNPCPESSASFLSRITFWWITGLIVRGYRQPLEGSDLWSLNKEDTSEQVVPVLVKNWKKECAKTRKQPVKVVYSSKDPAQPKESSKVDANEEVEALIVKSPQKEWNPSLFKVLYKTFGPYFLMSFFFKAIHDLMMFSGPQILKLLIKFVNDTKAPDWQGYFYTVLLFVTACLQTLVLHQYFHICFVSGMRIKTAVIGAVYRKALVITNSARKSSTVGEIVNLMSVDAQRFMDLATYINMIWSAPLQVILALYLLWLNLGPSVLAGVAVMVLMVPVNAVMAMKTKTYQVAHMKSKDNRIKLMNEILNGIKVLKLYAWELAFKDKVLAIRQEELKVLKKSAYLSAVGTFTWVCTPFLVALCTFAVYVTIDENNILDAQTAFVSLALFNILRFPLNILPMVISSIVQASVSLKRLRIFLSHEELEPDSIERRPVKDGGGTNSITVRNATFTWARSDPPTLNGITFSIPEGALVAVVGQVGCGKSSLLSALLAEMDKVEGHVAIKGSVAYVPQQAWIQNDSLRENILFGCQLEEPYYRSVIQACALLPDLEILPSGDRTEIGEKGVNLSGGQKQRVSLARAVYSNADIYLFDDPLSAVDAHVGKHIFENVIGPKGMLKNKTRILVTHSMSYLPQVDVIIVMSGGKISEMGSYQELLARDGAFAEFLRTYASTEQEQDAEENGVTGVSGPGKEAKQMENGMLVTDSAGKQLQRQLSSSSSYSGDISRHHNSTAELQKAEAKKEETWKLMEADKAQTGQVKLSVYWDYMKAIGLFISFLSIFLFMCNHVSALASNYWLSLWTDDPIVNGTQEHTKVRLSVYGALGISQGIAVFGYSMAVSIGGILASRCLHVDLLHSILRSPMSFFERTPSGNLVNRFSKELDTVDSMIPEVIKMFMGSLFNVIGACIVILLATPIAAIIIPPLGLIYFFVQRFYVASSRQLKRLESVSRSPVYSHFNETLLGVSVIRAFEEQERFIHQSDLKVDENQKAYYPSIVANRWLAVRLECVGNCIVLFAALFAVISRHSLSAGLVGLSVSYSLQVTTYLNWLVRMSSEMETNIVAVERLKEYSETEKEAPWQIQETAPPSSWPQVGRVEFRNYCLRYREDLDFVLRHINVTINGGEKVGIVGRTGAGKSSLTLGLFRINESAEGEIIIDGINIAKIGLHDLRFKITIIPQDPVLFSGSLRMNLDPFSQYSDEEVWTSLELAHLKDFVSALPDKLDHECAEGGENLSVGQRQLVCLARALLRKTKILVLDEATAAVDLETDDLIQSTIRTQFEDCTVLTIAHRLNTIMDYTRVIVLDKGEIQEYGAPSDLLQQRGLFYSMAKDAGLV

Consider `Cc1cc(C)c(Nc2ccnc(Nc3ccc(C#N)cc3)n2)c(C)c1` [DPV, dapivirine], for which the “Substrate of CYP3A4” value in the data set with CYP3A4 is “substrate”. The “Substrate of CYP1A1” value in the data set with CYP1A1 was “substrate”. The “DPV ER in MDCKII P-gp cells with verapamil, reduced to % of ER without” value at P-gp (0.5 μM DPV, 100 μM verapamil) worked out at 65%. Further, on P-gp (5 μM DPV, 1 μM digoxin), the “Impact on Papp of digoxin across MDCKII P-gp monolayers (either direction)” value was “no significant impact”. For the same compound, the “Substrate status for P-gp” value at P-gp (cellular system) was “not a substrate”. Moreover, the efflux ratio at 90 min, 0.5 μM at P-gp (dog, MDCK-MDR1, pH 7.4, 0.5 μM DPV, read-out: Net flux ratio (ER MDCKII P-gp / ER MDCKII WT)) was 1.31. On MRP1 [1], the “ATPase activity in MRP1 vesicles, % of baseline” value was “no significant stimulation”. In addition, in the data set on human cervical tissue, the “Gross morphology of human cervical epithelium after exposure” value is on record as “did not alter the gross morphology”. Besides, the “Effect on MRP1 expression level” value with MRP1 [2] was “upregulated”.

The values above are taken from PMC9501983, “Transport and Permeation Properties of Dapivirine: Understanding Potential Drug-Drug Interactions” (Pharmaceutics, 2022).
